Data on one compound can be found in US20150031760A1, “PHARMACEUTICAL COMPOSITION FOR PREVENTING OR TREATING NERVOUS SYSTEM DISORDERS COMPRISING SULFURETIN OR PHARMACEUTICALLY ACCEPTABLE SALT THEREOF” (Research and Business Foundation SUNGKYUNKWAN UNIVERSITY, priority 2010, published 2015).

Common to all, as to type: cell-based, human
One assay concerns SH-SY5Y cells. The assay can be described thus: LDH secretion (cytotoxicity) test. Here is the method:
(§1) The incubator was maintained at a temperature of 37° C., and a mixed gas of 95% air and 5% CO2 was continuously supplied thereto to provide suitable conditions for cell culture. The cells were cultured in a 6-well plate or a 96-well plate at each of densities of 1×10^6 and 2×10^4 cells/well 24 hours before the experiment. […] Sulfuretin was used in ethanol and used at a final concentration of 0.1% or less.
To measure LDH secretion (cytotoxicity), an LDH cytotoxicity assay kit was used. 50 μl of the medium was taken from each well of the 96-well plate (in which the cells have been cultured) and dispensed into each well of a fresh 96-well plate, and 50 μl of a reaction reagent was added to each well, after which the plate was shielded from light. The plate was incubated in an incubator for 30 minutes, and the UV absorbance at 490 nm was measured using a microplate reader (Molecular device, USA).
The measured absorbance was substituted into the following equation to calculate LDH secretion:
LDH secretion (%)=(LDH secretion O.D. in medium/total LDH secretion O.D.)×100

The next assay relates to Tau. The assay can be described thus: Western blot, amyloid beta25-35-induced hyperphosphorylation of Tau. The conditions noted are these: SH-SY5Y cells; pretreatment with sulfuretin at 20 μM; 20 μM amyloid beta25-35 (p<0.01). Background: In western blotting, separated proteins are transferred to a membrane and probed.
A further assay deals with BACE1. Put plainly: Western blot, BACE1 level. The conditions noted are these: Swedish APP mutant SH-SY5Y cells; sulfuretin 2.5, 5, 10 and 20 μM for 24 h; dose-dependent (p<0.001). As to the method:
For the experiments shown in FIGS. 11 to 13, SH-SY5Y and stable swedish APP mutant SH-SY5Y cells were grown in DMEM supplemented with 10% heat-inactivated FBS and 0.1% penicillin/streptomycin at 37° C. in a humidified atmosphere of 5% CO2 and 95% air. Cells were fed every three days and sub-cultured once they reached 80-90% confluency in […] cell culture dishes. Amyloid beta25-35 was prepared as a 20 mM stock immediately before use and diluted in PBS to the indicated final concentration. Prior to use, amyloid beta25-35 was dissolved in sterilized distilled water and was aggregated at 37° C. for five days. The test compounds were dissolved in DMSO and the stock solutions were added directly to the culture media to a final concentration of 0.1% (v/v) DMSO.
SH-SY5Y and stable swedish APP mutant SH-SY5Y cells (1×10^6 cells/well in 6-well plates) were incubated at 37° C. with or without 20 μM amyloid beta 25-35 for 6 or 24 h, with or without sulfuretin pretreatment, and then washed and harvested with ice-cold PBS and centrifuged at 400×g for 3 minutes. […] The protein concentration was determined using a protein assay kit (Thermo Scientific). […] Protein bands were quantified by densitometric analysis using Image Gauge 4.0 software (Fujifilm, Stamford, Conn., USA). […]

Another assay has as its system phospho-p38. The assay can be described thus: Western blot, phospho-p38 expression. The conditions noted are these: SH-SY5Y cells. As to the method:
as §1
In order to identify the effect of sulfuretin on the expression of proteins related to dementia, Alzheimer's disease, Parkinson's disease and strokes, a Western blot test was carried out.
After 24 hours, the supernatant of each well was collected and centrifuged at 400 g for 3 minutes, and the cells were washed with cold PBS and lysed with 100 μl of T-PER lysis buffer (Thermo, USA) for 30 minutes. The lysates were centrifuged at 10000 g at 4° C. for 15 minutes, and the supernatants were stored at […] until use as test samples. Proteins were quantitatively analyzed using a BCA assay kit (Thermo, USA) and separated within 8.5-12% SDS gel and then transferred to PVDF membranes. To examine the expression of the proteins, the development of fluorescence was analyzed by enhanced chemiluminescence (ECL). Specifically, the membrane was blocked with 5% skimmed non-fat milk for 1 hour and labeled with the primary antibodies, PARP, caspase-3, phospho-p38, phospho-JNK and β-actin at 4° C. overnight. Then, the membrane was washed three times with Tris-tween buffered saline (TTBS), and then labeled with horseradish peroxidase (HRP)-conjugated anti-rabbit and anti-mouse secondary antibodies at room temperature for 1 hour. Then, the membrane was washed five times with TTBS for 10 minutes. The washed film was developed by ECL using x-ray films, and concentrations were quantitatively analyzed using quantitative analysis program (Fujifilm, Japan).

On to `O=C1/C(=C/c2ccc(O)c(O)c2)Oc2cc(O)ccc21` [sulfuretin], for which the LDH secretion with SH-SY5Y cells (beta-amyloid-induced, sulfuretin 0.1 μg/ml) is recorded as ≤ 12%; in the assay with SH-SY5Y cells (beta-amyloid-induced, sulfuretin 0.5 μg/ml), ≤ 11%; with SH-SY5Y cells (beta-amyloid-induced, sulfuretin 1 μg/ml), ≤ 11%; with SH-SY5Y cells (beta-amyloid-induced, sulfuretin 5 μg/ml), ≤ 9%; in the assay with SH-SY5Y cells (hydrogen peroxide-induced, sulfuretin 0.1 μg/ml) it was ≤ 77%; in the assay with SH-SY5Y cells (hydrogen peroxide-induced, sulfuretin 0.5 μg/ml), ≤ 56%. The LDH secretion in the assay with SH-SY5Y cells (hydrogen peroxide-induced, sulfuretin 1 μg/ml) is ≤ 33%; with SH-SY5Y cells (hydrogen peroxide-induced, sulfuretin 5 μg/ml), ≤ 39%. The “amyloid beta25-35-mediated increases in phosphorylation of Tau proteins” value in the assay with Tau is “significantly inhibited”. In addition, the BACE1 level entry in the assay on BACE1 is reported as “significantly inhibited”. Besides, the values for the phospho-p38 expression in the assay with phospho-p38 (hydrogen peroxide + sulfuretin 0.1 μg/ml), in the assay with phospho-p38 (hydrogen peroxide + sulfuretin 0.5 μg/ml) and in the assay on phospho-p38 (hydrogen peroxide + sulfuretin 1 μg/ml) were ≤ 157%, ≤ 133% and ≤ 53%, respectively.
